Laboratory results reported in patent US9023844B2, “Heterocyclylpyri (mi) dinylpyrazole as fungicidals” (Bayer Intellectual Property GmbH, priority 2011, dated 2015).

Test: Determination of log P values by HPLC on a reverse phase column (C18), EEC-Directive 79/831 Annex V.A8 (Methods A, B, C)
Format: physicochemical
Settings: Method B (HPLC, reverse phase C18)
Protocol: (§1) Note on the determination of the log P values and mass detection: The stated log P values were determined in accordance with EEC-Directive 79/831 Annex V.A8 by HPLC (High Performance Liquid Chromatography) on a reverse phase column (C18). Agilent 1100 LC system; 50*4.6 Zorbax Eclipse Plus C18 1.8 micron; eluent A: acetonitrile (0.1% formic acid); eluent B: water (0.09% formic acid); linear gradient from 10% acetonitrile to 95% acetonitrile in 4.25 mins, then 95% acetonitrile for a further 1.25 mins; oven temperature 55° C.; flow rate: 2.0 mL/min. The mass detection was effected with an Agilend MSD system.
as §1, with “HP1100;” for “Agilent 1100 LC system;”, “(0.08%” for “(0.09%”, “5%” for “10%”, “1.70 min,” for “4.25 mins,”, “1.00 min;” for “1.25 mins;”, “the Micronass ZQ2000 mass detector from Waters.” for “an Agilend MSD system.”
Note on the determination of the log P values and mass detection: The stated log P values were determined in accordance with EEC-Directive 79/831 Annex V.A8 by UPLC (Ultra Performance Liquid Chromatography) on a reverse phase column (C18). HP1100; 50*2.1 Zorbax Eclipse Plus C18 1.8 micron; eluent A: acetonitrile (0.09% formic acid); eluent B: water (0.1% formic acid); linear gradient from 10% A to 95% A in 3.25 min; oven temperature 40° C.; flow rate: 0.8 mL/min. The mass detection was effected with the LCT Premier or SQD mass detector from Waters.

Row | Compound | LogP
1 | O=C(Nc1cc(-c2c(-c3ccc(F)cc3F)nn3c2OCCC3)ccn1)C1(Cl)CC1 [Example 50] | 2.84
2 | CCCC(CCC)C(=O)Nc1cc(-c2c(-c3ccc(F)cc3)nn3c2OCCC3)ccn1 [Example 67] | 2.64
3 | O=C(Nc1cc(-c2c(-c3ccc(F)cc3)nn3c2OCCC3)ccn1)c1c(F)cccc1F [Example 71] | 2.43
4 | CC1(C(=O)Nc2cc(-c3c(-c4ccc(F)cc4)nn4c3OCCC4)ccn2)CC1 [Example 98] | 1.79
5 | CC(=O)CCCC(=O)Nc1cc(-c2c(-c3ccc(F)cc3)nn3c2OCCC3)ccn1 [Example 99] | 1.35
6 | O=C1CCC(C(=O)Nc2cc(-c3c(-c4ccc(F)cc4)nn4c3OCCC4)ccn2)C1 (stereo not shown) [Example 112] | 1.38
7 | O=C(Nc1cc(-c2c(-c3ccc(F)cc3)nn3c2OCCC3)ccn1)c1cncc(F)c1 [Example 114] | 1.96
8 | CC(C)(F)C(=O)Nc1cc(-c2c(-c3ccc(F)cc3)nn3c2OCCC3)ccn1 [Example 115] | 2.38
9 | O=C(Nc1cc(-c2c(-c3ccc(F)cc3)nn3c2OCCC3)ccn1)C1CC1(F)Cl (stereo not shown) [Example 116] | 2.13
10 | CC1(C(=O)Nc2cc(-c3c(-c4ccc(F)cc4)nn4c3OCCC4)ccn2)CCCC1 [Example 117] | 2.23
11 | CC1(C(=O)Nc2cc(-c3c(-c4ccc(F)cc4)nn4c3OCCC4)ccn2)COCOC1 [Example 118] | 1.86
12 | CCC1(C(=O)Nc2cc(-c3c(-c4ccc(F)cc4)nn4c3OCCC4)ccn2)COC1 [Example 119] | 1.56
13 | N#CC1(C(=O)Nc2cc(-c3c(-c4ccc(F)cc4)nn4c3OCCC4)ccn2)CC1 [Example 120] | 2.13
14 | CC1(C(=O)Nc2cc(-c3c(-c4ccc(F)cc4)nn4c3OCCC4)ccn2)CC=CCC1 (stereo not shown) [Example 121] | 2.38
15 | CC(C)=NOCC(=O)Nc1cc(-c2c(-c3ccc(F)cc3)nn3c2OCCC3)ccn1 [Example 122] | 2.13
16 | O=C(Cn1cccn1)Nc1cc(-c2c(-c3ccc(F)cc3)nn3c2OCCC3)ccn1 [Example 123] | 1.63

Row | Compound | LogP
17 | O=C(CC1CCCOC1)Nc1cc(-c2c(-c3ccc(F)cc3)nn3c2OCCC3)ccn1 (stereo not shown) [Example 124] | 1.57
18 | O=C(Nc1cc(-c2c(-c3ccc(F)cc3)nn3c2OCCC3)ccn1)C1CC=CC1 [Example 125] | 1.76
19 | Cc1occc1C(=O)Nc1cc(-c2c(-c3ccc(F)cc3)nn3c2OCCC3)ccn1 [Example 126] | 1.96
20 | CCC(C)CC(C)C(=O)Nc1cc(-c2c(-c3ccc(F)cc3)nn3c2OCCC3)ccn1 (stereo not shown) [Example 127] | 2.65
21 | O=C(Nc1cc(-c2c(-c3ccc(F)cc3)nn3c2OCCC3)ccn1)C1CCSCC1 [Example 128] | 1.83
22 | O=C(Nc1cc(-c2c(-c3ccc(F)cc3)nn3c2OCCC3)ccn1)C1(C2CC2)CC1 [Example 129] | 2.46
23 | O=C(Nc1cc(-c2c(-c3ccc(F)cc3)nn3c2OCCC3)ccn1)c1ccc(F)s1 [Example 130] | 2.42
24 | CC[C@H](C)CC(=O)Nc1cc(-c2c(-c3ccc(F)cc3)nn3c2OCCC3)ccn1 [Example 131] | 2.1
25 | O=C(CCn1ccnn1)Nc1cc(-c2c(-c3ccc(F)cc3)nn3c2OCCC3)ccn1 [Example 133] | 1.23
26 | Cc1cc(C(=O)Nc2cc(-c3c(-c4ccc(F)cc4)nn4c3OCCC4)ccn2)no1 [Example 134] | 2.53
27 | Cc1noc(C)c1C(=O)Nc1cc(-c2c(-c3ccc(F)cc3)nn3c2OCCC3)ccn1 [Example 135] | 2.06
28 | CC(C)=NOC(C)C(=O)Nc1cc(-c2c(-c3ccc(F)cc3)nn3c2OCCC3)ccn1 (stereo not shown) [Example 136] | 2.34
29 | O=C(Cn1cncn1)Nc1cc(-c2c(-c3ccc(F)cc3)nn3c2OCCC3)ccn1 [Example 137] | 1.32
30 | CC(C)[C@H](NC=O)C(=O)Nc1cc(-c2c(-c3ccc(F)cc3)nn3c2OCCC3)ccn1 [Example 138] | 1.6
31 | O=C(CC1=CCCCC1)Nc1cc(-c2c(-c3ccc(F)cc3)nn3c2OCCC3)ccn1 [Example 139] | 2.46

Same assay, conditions: Method C (HPLC, reverse phase C18)

Row | Compound | LogP
32 | CCC(=O)Nc1cc(-c2c(-c3ccccc3)nn3c2N(C(=O)CC)CCC3)ccn1 [Example 78] | 1.45
33 | C[Si]1(C)COc2c(-c3ccnc(NC(=O)C4CC4)c3)c(-c3cccs3)nn2C1 [Example 87] | 2.08
34 | CCC(=O)N1CCCn2nc(-c3ccc(F)cc3)c(-c3ccnc(N(C(C)=O)C(=O)CC)c3)c21 [Example 90] | 2.39
35 | CCC(=O)Nc1cc(-c2c(-c3ccc(F)cc3)nn3c2N(C(=O)CC)CCC3)ccn1 [Example 91] | 1.62
36 | CCC(=O)N(C)c1cc(-c2c(-c3ccc(F)cc3)nn3c2N(C(=O)CC)CCC3)ccn1 [Example 93] | 2.05
37 | CC(=O)Nc1cc(-c2c(-c3ccc(F)cc3)nn3c2N(C(C)=O)CCC3)ccn1 [Example 94] | 1.26
38 | CCN1CCCn2nc(-c3ccc(F)cc3)c(-c3ccnc(NCc4ccccc4)c3)c21 [Example 97] | 1.86
39 | CC(C)C(=O)Nc1cc(-c2c(-c3ccc(F)cc3)nn3c2OCC(C)(C#N)C3)ccn1 (stereo not shown) [Example 107] | 1.94
40 | CC1(C)COc2c(-c3ccnc(NC(=O)C4CC4)c3)c(-c3ccc(F)cc3)nn2C1 [Example 108] | 2.08
41 | CC(=O)Nc1cc(-c2c(-c3ccc(F)cc3)nn3c2OCC(C)(C)C3)ccn1 [Example 109] | 1.75
42 | CCC(=O)Nc1cc(-c2c(-c3ccc(F)cc3)nn3c2OCC(C)(C)C3)ccn1 [Example 110] | 2.00
43 | CC(C)C(=O)Nc1cc(-c2c(-c3ccc(F)cc3)nn3c2OCC(C)(C)C3)ccn1 [Example 111] | 2.23

Same assay, conditions: reverse phase C18 HPLC column, Method B (HPLC, reverse phase C18); read-out: LogP

Row | Compound | chromatographic logP
44 | CC(F)C(=O)Nc1cc(-c2c(-c3ccc(F)cc3)nn3c2OCCC3)ccn1 (stereo not shown) [Example 113, 2-fluoro-N-{4-[2-(4-fluorophenyl)-6,7-dihydro-5H-pyrazolo[5,1-b][1,3]oxazin-3-yl]pyridin-2-yl}propanamide] | 2

Same assay, conditions: reverse phase C18 HPLC column, Method C (HPLC, reverse phase C18); read-out: LogP

Row | Compound | chromatographic logP
45 | CC(=O)N1CCCn2nc(-c3ccccc3)c(-c3ccnc(N(C(C)=O)C(C)=O)c3)c21 [Example 58, N-acetyl-N-[4-(4-acetyl-2-phenyl-4,5,6,7-tetrahydropyrazolo[1,5-a]pyrimidin-3-yl)pyridin-2-yl]acetamide] | 1.72
46 | CC(=O)Nc1cc(-c2c(-c3ccc(F)cc3)nn3cccnc23)ccn1 [Example 60, N-{4-[2-(4-Fluorophenyl)pyrazolo[1,5-a]pyrimidin-3-yl]pyridin-2-yl}acetamide] | 1.47

Same assay, conditions: reverse phase C18 HPLC column, pH 2.3, intermediates of formula [II]; HPLC, reverse phase C18; read-out: LogP (pH 2.3)

Row | Compound | chromatographic logP
47 | Nc1cc(-c2c(-c3ccccc3)nn3c2OCCC3)ccn1 [[II-1], 4-(2-phenyl-6,7-dihydro-5H-pyrazolo[5,1-b][1,3]oxazin-3-yl)pyridin-2-amine] | 0.87
48 | Nc1cc(-c2c(-c3ccc(F)cc3)nn3c2OCCC3)ccn1 [[II-2], 4-[2-(4-fluorophenyl)-6,7-dihydro-5H-pyrazolo[5,1-b][1,3]oxazin-3-yl]pyridin-2-amine] | 0.95
49 | Nc1cc(-c2c(-c3ccc(F)cc3F)nn3c2OCCC3)ccn1 [[II-3], 4-[2-(2,4-difluorophenyl)-6,7-dihydro-5H-pyrazolo[5,1-b][1,3]oxazin-3-yl]pyridin-2-amine] | 1.01
50 | C[Si]1(C)COc2c(-c3ccnc(N)c3)c(-c3ccc(F)cc3)nn2C1 [[II-4], 4-[7-(4-fluorophenyl)-3,3-dimethyl-3,4-dihydro-2H-pyrazolo[5,1-b][1,3,5]oxazasilin-8-yl]pyridin-2-amine] | 1.66

Same assay, conditions: reverse phase C18 HPLC column, pH 2.3, intermediates of formula [IV] and [XXXVII]; HPLC, reverse phase C18; read-out: LogP (pH 2.3)

Row | Compound | chromatographic logP
51 | C[C@@H]1C[C@@H](C)n2nc(-c3ccc(F)cc3)c(Br)c2O1 (racemic) [[IV-9a], rac-trans-3-bromo-2-(4-fluorophenyl)-5,7-dimethyl-6,7-dihydro-5H-pyrazolo[5,1-b][1,3]oxazine] | 3.91
52 | C[C@@H]1C[C@H](C)n2nc(-c3ccc(F)cc3)c(Br)c2O1 (racemic) [[IV-9b], rac-cis-3-bromo-2-(4-fluorophenyl)-5,7-dimethyl-6,7-dihydro-5H-pyrazolo[5,1-b][1,3]oxazine] | 3.68

Same assay, conditions: reverse phase C18 HPLC column, pH 2.7, values in the synthesis examples; HPLC, reverse phase C18; read-out: log P (pH 2.7)

Row | Compound | chromatographic logP
53 | C[C@@H]1C[C@@H](C)n2nc(-c3ccc(F)cc3)c(Br)c2O1 (racemic) [[IV-9a], rac-trans-3-bromo-2-(4-fluorophenyl)-5,7-dimethyl-6,7-dihydro-5H-pyrazolo[5,1-b][1,3]oxazine] | 3.91
54 | C[C@@H]1C[C@H](C)n2nc(-c3ccc(F)cc3)c(Br)c2O1 (racemic) [[IV-9b], rac-cis-3-bromo-2-(4-fluorophenyl)-5,7-dimethyl-6,7-dihydro-5H-pyrazolo[5,1-b][1,3]oxazine] | 3.68
55 | CC(=O)N1CCCn2nc(-c3ccccc3)c(-c3ccnc(N(C(C)=O)C(C)=O)c3)c21 [Example 58, N-acetyl-N-[4-(4-acetyl-2-phenyl-4,5,6,7-tetrahydropyrazolo[1,5-a]pyrimidin-3-yl)pyridin-2-yl]acetamide] | 1.72
56 | CC(=O)Nc1cc(-c2c(-c3ccc(F)cc3)nn3cccnc23)ccn1 [Example 60, N-{4-[2-(4-Fluorophenyl)pyrazolo[1,5-a]pyrimidin-3-yl]pyridin-2-yl}acetamide] | 1.47
57 | CC(F)C(=O)Nc1cc(-c2c(-c3ccc(F)cc3)nn3c2OCCC3)ccn1 (stereo not shown) [Example 113, 2-fluoro-N-{4-[2-(4-fluorophenyl)-6,7-dihydro-5H-pyrazolo[5,1-b][1,3]oxazin-3-yl]pyridin-2-yl}propanamide] | 2
58 | CC(C)(C)OC(=O)Nc1cc(-c2c(-c3ccccc3)nn3cccnc23)ccn1 [[I-i-2], tert-butyl [4-(2-phenylpyrazolo[1,5-a]pyrimidin-3-yl)pyridin-2-yl]carbamate] | 2.32
59 | Nc1cc(-c2c(-c3ccccc3)nn3c2OCCC3)ccn1 [[II-1], 4-(2-phenyl-6,7-dihydro-5H-pyrazolo[5,1-b][1,3]oxazin-3-yl)pyridin-2-amine] | 0.87
60 | Nc1cc(-c2c(-c3ccc(F)cc3)nn3c2OCCC3)ccn1 [[II-2], 4-[2-(4-fluorophenyl)-6,7-dihydro-5H-pyrazolo[5,1-b][1,3]oxazin-3-yl]pyridin-2-amine] | 0.95
61 | Nc1cc(-c2c(-c3ccc(F)cc3F)nn3c2OCCC3)ccn1 [[II-3], 4-[2-(2,4-difluorophenyl)-6,7-dihydro-5H-pyrazolo[5,1-b][1,3]oxazin-3-yl]pyridin-2-amine] | 1.01
